Experimental data as given in PubChem BioAssay (NCI).
“And” between values parts separate entries of the source, which are not always exact repeats. Identical values can stand only once.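 A five-concentration, 48-hour dose response in 96-well plates underlies each endpoint, interpolated linearly between surrounding concentrations. The concentration for full growth arrest is given as TGI.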

System: A549 NSCLC
Test: DTP human tumour cell line panel, 48 h

Structure (SMILES)	TGI [µM]
[N-]=[N+]=NCc1nc(N)c2c3c(sc2n1)CCCC3	36.6
CCOC(=O)C(CCN1CCC2(CC1)C(=O)N(C)CN2c1ccccc1)C(=O)OCC	> 100
Cc1cc(/N=C/c2ccc(F)cc2)n(-c2ccccc2)n1	> 100
CCOC(=O)/C=C(/C(=O)OCC)n1cnc2c(=O)[nH]c(NC(C)=O)nc21	> 100
O=C1NC(N/N=C\C(O)C(O)C(O)C(O)CO)=N/C1=C/c1ccc(Cl)cc1 (stereo not given)	> 100
CC(Oc1ccc(Cl)cc1Cl)C(=O)NN1C(=O)CSC1c1ccccc1 (stereo not given)	> 100
CCOC(=O)/C=C(\C(=O)OCC)n1ccc(=O)n(Cc2cn(CCCCOC(C)=O)nn2)c1=O	45.9
O=C1c2ccccc2C(=O)c2c1nc1ccccc1c2-c1cncc(-c2c3c(nc4ccccc24)C(=O)c2ccccc2C3=O)c1	22.3
COC(C)(C)OCCN1CCN(CCN2C3=C(C=C(C(C)=O)C3)Sc3ccccc32)CC1	96.7

System: HOP-92 NSCLC
Test: DTP human tumour cell line panel, 48 h

Structure (SMILES)	TGI [µM]
[N-]=[N+]=NCc1nc(N)c2c3c(sc2n1)CCCC3	1.77
CCOC(=O)C(CCN1CCC2(CC1)C(=O)N(C)CN2c1ccccc1)C(=O)OCC	> 100
Cc1cc(/N=C/c2ccc(F)cc2)n(-c2ccccc2)n1	> 100
CCOC(=O)/C=C(/C(=O)OCC)n1cnc2c(=O)[nH]c(NC(C)=O)nc21	> 100
O=C1NC(N/N=C\C(O)C(O)C(O)C(O)CO)=N/C1=C/c1ccc(Cl)cc1 (stereo not given)	> 100
CC(Oc1ccc(Cl)cc1Cl)C(=O)NN1C(=O)CSC1c1ccccc1 (stereo not given)	83.8
CCOC(=O)/C=C(\C(=O)OCC)n1ccc(=O)n(Cc2cn(CCCCOC(C)=O)nn2)c1=O	5.15
O=C1c2ccccc2C(=O)c2c1nc1ccccc1c2-c1cncc(-c2c3c(nc4ccccc24)C(=O)c2ccccc2C3=O)c1	> 43.7
COC(C)(C)OCCN1CCN(CCN2C3=C(C=C(C(C)=O)C3)Sc3ccccc32)CC1	92.9

System: HS 578T breast
Test: DTP human tumour cell line panel, 48 h

Structure (SMILES)	TGI [µM]
[N-]=[N+]=NCc1nc(N)c2c3c(sc2n1)CCCC3	14.9
CCOC(=O)C(CCN1CCC2(CC1)C(=O)N(C)CN2c1ccccc1)C(=O)OCC	> 100
Cc1cc(/N=C/c2ccc(F)cc2)n(-c2ccccc2)n1	> 100
CCOC(=O)/C=C(/C(=O)OCC)n1cnc2c(=O)[nH]c(NC(C)=O)nc21	> 100
O=C1NC(N/N=C\C(O)C(O)C(O)C(O)CO)=N/C1=C/c1ccc(Cl)cc1 (stereo not given)	> 100
CC(Oc1ccc(Cl)cc1Cl)C(=O)NN1C(=O)CSC1c1ccccc1 (stereo not given)	> 100
CCOC(=O)/C=C(\C(=O)OCC)n1ccc(=O)n(Cc2cn(CCCCOC(C)=O)nn2)c1=O	63.1
O=C1c2ccccc2C(=O)c2c1nc1ccccc1c2-c1cncc(-c2c3c(nc4ccccc24)C(=O)c2ccccc2C3=O)c1	14.7
COC(C)(C)OCCN1CCN(CCN2C3=C(C=C(C(C)=O)C3)Sc3ccccc32)CC1	36.5

System: MDA-MB-435
Test: DTP human tumour cell line panel, 48 h

Structure (SMILES)	TGI [µM]
[N-]=[N+]=NCc1nc(N)c2c3c(sc2n1)CCCC3	32
CCOC(=O)C(CCN1CCC2(CC1)C(=O)N(C)CN2c1ccccc1)C(=O)OCC	> 100
Cc1cc(/N=C/c2ccc(F)cc2)n(-c2ccccc2)n1	> 100
CCOC(=O)/C=C(/C(=O)OCC)n1cnc2c(=O)[nH]c(NC(C)=O)nc21	> 100
O=C1NC(N/N=C\C(O)C(O)C(O)C(O)CO)=N/C1=C/c1ccc(Cl)cc1 (stereo not given)	> 100
CC(Oc1ccc(Cl)cc1Cl)C(=O)NN1C(=O)CSC1c1ccccc1 (stereo not given)	> 100
CCOC(=O)/C=C(\C(=O)OCC)n1ccc(=O)n(Cc2cn(CCCCOC(C)=O)nn2)c1=O	18.1
O=C1c2ccccc2C(=O)c2c1nc1ccccc1c2-c1cncc(-c2c3c(nc4ccccc24)C(=O)c2ccccc2C3=O)c1	3.96
COC(C)(C)OCCN1CCN(CCN2C3=C(C=C(C(C)=O)C3)Sc3ccccc32)CC1	30.9

System: MALME-3M melanoma
Test: DTP human tumour cell line panel, 48 h

Structure (SMILES)	TGI [µM]
[N-]=[N+]=NCc1nc(N)c2c3c(sc2n1)CCCC3	3.27
CCOC(=O)C(CCN1CCC2(CC1)C(=O)N(C)CN2c1ccccc1)C(=O)OCC	> 100
Cc1cc(/N=C/c2ccc(F)cc2)n(-c2ccccc2)n1	> 100
CCOC(=O)/C=C(/C(=O)OCC)n1cnc2c(=O)[nH]c(NC(C)=O)nc21	> 100
O=C1NC(N/N=C\C(O)C(O)C(O)C(O)CO)=N/C1=C/c1ccc(Cl)cc1 (stereo not given)	> 100
CC(Oc1ccc(Cl)cc1Cl)C(=O)NN1C(=O)CSC1c1ccccc1 (stereo not given)	> 100
CCOC(=O)/C=C(\C(=O)OCC)n1ccc(=O)n(Cc2cn(CCCCOC(C)=O)nn2)c1=O	4.83
O=C1c2ccccc2C(=O)c2c1nc1ccccc1c2-c1cncc(-c2c3c(nc4ccccc24)C(=O)c2ccccc2C3=O)c1	24.1
COC(C)(C)OCCN1CCN(CCN2C3=C(C=C(C(C)=O)C3)Sc3ccccc32)CC1	36.6

System: SF-268 CNS
Test: DTP human tumour cell line panel, 48 h

Structure (SMILES)	TGI [µM]
[N-]=[N+]=NCc1nc(N)c2c3c(sc2n1)CCCC3	6.23
CCOC(=O)C(CCN1CCC2(CC1)C(=O)N(C)CN2c1ccccc1)C(=O)OCC	> 100
Cc1cc(/N=C/c2ccc(F)cc2)n(-c2ccccc2)n1	> 100
CCOC(=O)/C=C(/C(=O)OCC)n1cnc2c(=O)[nH]c(NC(C)=O)nc21	> 100
O=C1NC(N/N=C\C(O)C(O)C(O)C(O)CO)=N/C1=C/c1ccc(Cl)cc1 (stereo not given)	> 100
CC(Oc1ccc(Cl)cc1Cl)C(=O)NN1C(=O)CSC1c1ccccc1 (stereo not given)	> 100
CCOC(=O)/C=C(\C(=O)OCC)n1ccc(=O)n(Cc2cn(CCCCOC(C)=O)nn2)c1=O	36.9
O=C1c2ccccc2C(=O)c2c1nc1ccccc1c2-c1cncc(-c2c3c(nc4ccccc24)C(=O)c2ccccc2C3=O)c1	> 62.8
COC(C)(C)OCCN1CCN(CCN2C3=C(C=C(C(C)=O)C3)Sc3ccccc32)CC1	43.2

System: RPMI-8226 leukemia
Test: DTP human tumour cell line panel, 48 h

Structure (SMILES)	TGI [µM]
[N-]=[N+]=NCc1nc(N)c2c3c(sc2n1)CCCC3	> 24.9
CCOC(=O)C(CCN1CCC2(CC1)C(=O)N(C)CN2c1ccccc1)C(=O)OCC	> 100
Cc1cc(/N=C/c2ccc(F)cc2)n(-c2ccccc2)n1	92.8
CCOC(=O)/C=C(/C(=O)OCC)n1cnc2c(=O)[nH]c(NC(C)=O)nc21	> 100
O=C1NC(N/N=C\C(O)C(O)C(O)C(O)CO)=N/C1=C/c1ccc(Cl)cc1 (stereo not given)	> 100
CC(Oc1ccc(Cl)cc1Cl)C(=O)NN1C(=O)CSC1c1ccccc1 (stereo not given)	> 100
CCOC(=O)/C=C(\C(=O)OCC)n1ccc(=O)n(Cc2cn(CCCCOC(C)=O)nn2)c1=O	> 36
O=C1c2ccccc2C(=O)c2c1nc1ccccc1c2-c1cncc(-c2c3c(nc4ccccc24)C(=O)c2ccccc2C3=O)c1	3.51
COC(C)(C)OCCN1CCN(CCN2C3=C(C=C(C(C)=O)C3)Sc3ccccc32)CC1	32.8

System: OVCAR-4 ovarian
Test: DTP human tumour cell line panel, 48 h

Structure (SMILES)	TGI
[N-]=[N+]=NCc1nc(N)c2c3c(sc2n1)CCCC3	1.42 µM
CCOC(=O)C(CCN1CCC2(CC1)C(=O)N(C)CN2c1ccccc1)C(=O)OCC	> 100 µM
Cc1cc(/N=C/c2ccc(F)cc2)n(-c2ccccc2)n1	> 100 µM
CCOC(=O)/C=C(/C(=O)OCC)n1cnc2c(=O)[nH]c(NC(C)=O)nc21	> 100 µM
O=C1NC(N/N=C\C(O)C(O)C(O)C(O)CO)=N/C1=C/c1ccc(Cl)cc1 (stereo not given)	> 100 µM and 50.7 µM
CC(Oc1ccc(Cl)cc1Cl)C(=O)NN1C(=O)CSC1c1ccccc1 (stereo not given)	> 100 µM
CCOC(=O)/C=C(\C(=O)OCC)n1ccc(=O)n(Cc2cn(CCCCOC(C)=O)nn2)c1=O	48.2 µM
O=C1c2ccccc2C(=O)c2c1nc1ccccc1c2-c1cncc(-c2c3c(nc4ccccc24)C(=O)c2ccccc2C3=O)c1	> 100 µM
COC(C)(C)OCCN1CCN(CCN2C3=C(C=C(C(C)=O)C3)Sc3ccccc32)CC1	> 100 µM

System: MDA-MB-231 breast
Test: DTP human tumour cell line panel, 48 h

Structure (SMILES)	TGI [µM]
[N-]=[N+]=NCc1nc(N)c2c3c(sc2n1)CCCC3	80.6
CCOC(=O)C(CCN1CCC2(CC1)C(=O)N(C)CN2c1ccccc1)C(=O)OCC	> 100
Cc1cc(/N=C/c2ccc(F)cc2)n(-c2ccccc2)n1	> 100
CCOC(=O)/C=C(/C(=O)OCC)n1cnc2c(=O)[nH]c(NC(C)=O)nc21	> 100
O=C1NC(N/N=C\C(O)C(O)C(O)C(O)CO)=N/C1=C/c1ccc(Cl)cc1 (stereo not given)	> 100
CC(Oc1ccc(Cl)cc1Cl)C(=O)NN1C(=O)CSC1c1ccccc1 (stereo not given)	> 100
CCOC(=O)/C=C(\C(=O)OCC)n1ccc(=O)n(Cc2cn(CCCCOC(C)=O)nn2)c1=O	39.1
O=C1c2ccccc2C(=O)c2c1nc1ccccc1c2-c1cncc(-c2c3c(nc4ccccc24)C(=O)c2ccccc2C3=O)c1	98.2
COC(C)(C)OCCN1CCN(CCN2C3=C(C=C(C(C)=O)C3)Sc3ccccc32)CC1	52.4

System: NCI/ADR-RES ovarian
Test: DTP human tumour cell line panel, 48 h

Structure (SMILES)	TGI [µM]
[N-]=[N+]=NCc1nc(N)c2c3c(sc2n1)CCCC3	> 22.2
CCOC(=O)C(CCN1CCC2(CC1)C(=O)N(C)CN2c1ccccc1)C(=O)OCC	> 100
Cc1cc(/N=C/c2ccc(F)cc2)n(-c2ccccc2)n1	> 100
CCOC(=O)/C=C(/C(=O)OCC)n1cnc2c(=O)[nH]c(NC(C)=O)nc21	> 100
O=C1NC(N/N=C\C(O)C(O)C(O)C(O)CO)=N/C1=C/c1ccc(Cl)cc1 (stereo not given)	> 100
CC(Oc1ccc(Cl)cc1Cl)C(=O)NN1C(=O)CSC1c1ccccc1 (stereo not given)	> 100
CCOC(=O)/C=C(\C(=O)OCC)n1ccc(=O)n(Cc2cn(CCCCOC(C)=O)nn2)c1=O	53.3
O=C1c2ccccc2C(=O)c2c1nc1ccccc1c2-c1cncc(-c2c3c(nc4ccccc24)C(=O)c2ccccc2C3=O)c1	51
COC(C)(C)OCCN1CCN(CCN2C3=C(C=C(C(C)=O)C3)Sc3ccccc32)CC1	50.2
